Earlier results as cited in patent publication US7186826B2, “Phosphorus-containing compounds and uses thereof” (ARIAD Gene Therapeutics, Inc., priority 2002, dated 2007).

Conditions: see WO 03/022807 and 99/15530

Structure (SMILES): CO[C@H]1C[C@@H]2CC[C@@H](C)[C@@](O)(O2)C(=O)C(=O)N2CCCC[C@H]2C(=O)O[C@H]([C@H](C)C[C@@H]2CC[C@H](n3cnnn3)[C@H](OC)C2)CC(=O)[C@H](C)/C=C(\C)[C@@H](O)[C@@H](OC)C(=O)[C@H](C)C[C@H](C)/C=C/C=C/C=C/1C [ABT-578]
- biological half-life: shortened
